This is an account of results in US20250281610A1, “P2RY2 ACTIVITY MODULATORS” (Deutsches Krebsforschungszentrum Stiftung des öffentlichen …, priority 2022, published 2025).

One series deals with B7-H3. The series is described as follows: Flow cytometry analysis of B7-H3 expression after ATP or UTP stimulation. It is filed as cell-based, human. The note with it: for B7-H3 expression: P2RY2 proficient cells (THP-1, FIG. 3) stimulated with ATP or UTP for 24 hours. From the text: FIG. 2. Flow cytometry analysis of B7-H3 expression in wildtype (WT) and P2RY2-deficient bulk THP-1, U937, KBM7, and K562 cells (P2RY2-3 KO and P2RY2-4 KO) in the absence or presence of ATP. Values indicate MFI relative to untreated WT cells.
FIG. 3. Flow cytometry analysis of B7-H3 expression in THP-1 cells in the absence or presence of ATP. Values indicate MFI relative to untreated cells.
THP-1 cells, U937 cells, K562 cells, and KBM7 cells were transduced with a lentiviral vector encoding Cas9 along with a Blasticidin S resistance cassette ([…] deaminase). One day after the transduction, cells were selected with 50 microgram/milliliter Blasticidin S Hydrochloride for […]. Next, surviving cells were transduced with one of the lentiviral vectors encoding sgRNA targeting the sequences 5′-[…]-3′ (SEQ ID NO:6) and 5′-[…]-3′ (SEQ ID NO:7) on the coding strand of P2RY2 gene, along with a puromycin resistance cassette (puromycin N-acetyltransferase). One day after the transduction, cells were selected with 2 microgram/milliliter Puromycin dihydrochloride for 48-96 hours. Selected cells were expanded, subjected to genomic DNA isolation, and analyzed for deleterious editing of the P2RY2 locus by PCR (using primers 5′-[…]-3′ (SEQ ID NO:8) and 5′-[…]-3′ (SEQ ID NO:9)) and Sanger sequencing of the PCR products using primer 5′-[…]-3′ (SEQ ID NO:8) for the sgRNA(5′-[…]-3′, SEQ ID NO:6)) transduced cell and 5′-[…]-3′ (SEQ ID NO:9) for the sgRNA(5′-[…]-3′, SEQ ID NO:7) transduced cell.
The polyclonal cells transduced with Cas9 and sgRNA targeting P2RY2, and wildtype cells were cultured in the absence or presence of ATP or UTP (ligands of P2RY2, Sigma) for 24 hours, stained with anti-B7-H3 antibody and analyzed by flow cytometry.
(In general: Flow cytometry measures light scatter and fluorescence of single cells or particles in a stream.)

For series [1], the system named is CEA-specific CAR transduced T cells co-cultured with SW480 cells. Nature of the series: T cell activation in co-culture of CEA-specific CAR-T cells with SW480 cells. The note with it: 40 μM ATP, 200 μM ATPγS, 10 μM Diquafosol, 5 μM Denufosol, 24 hours (FIG. 19). It is filed as cell-based, human. As to the method:
FIG. 19. Effects of P2RY2 agonist and P2RY2 antagonist on T cell activity in T cell-cancer cell co-cultures. T cells transduced with a CEA-specific CAR (CAR-T) were co-cultured with genetically edited SW480 cells for 24 hours in the absence or presence of 40 μM ATP, 200 μM ATPγS, 10 μM Diquafosol, 5 μM Denufosol and 10 μM AR-C 118925XX (AR-C). Control cells: SW480 cells transduced with non-targeting sgRNA and Cas9 (gNT); P2RY2 deficient cells: SW480 cells transduced with P2RY2-targeting sgRNA and Cas9 (gP2RY2-3, gP2RY2-4); B7-H3 (CD276) deficient cells: SW480 cells transduced with B7-H3-targeting sgRNA and Cas9 (gCD276-1); P2RY2 and B7-H3 double deficient cells: SW480 cells transduced with P2RY2-targeting sgRNA, B7-H3-targeting sgRNA, and Cas9 (gCD276-1 gP2RY2-3 DKO, gCD276-1 gP2RY2-4 DKO); P2RY2 overexpression cells: SW480 cells transduced with the open reading frame of P2RY2 (P2RY2-OE); B7-H3 overexpression cells: SW480 cells transduced with the open reading frame of CD276 (CD276-OE). Transduced cancer cells were selected by antibiotics according to antibiotic resistance genes carried by the lentiviral constructs. Flow cytometry analysis of expression of CD25 and CD69 and production of IFNγ within the CD3+CD8+ or CD3+CD4+ cell population is shown (values indicate the percentages of positive cells).
MART-1 specific T cells were generated as described (Mezzadra et al., Nature 549, 106-110 (2017); Jorritsma et al., Blood 110 (10): 3564-3572. (2007)). To generate CD33-specific chimeric antigen receptor (CAR) T cells and CEA-specific CAR-T cells, a CD33Hul95-CD28Z CAR (described in WO 2019/178382) cassette and MFE-23 (described in US20050147614A1)-CD28Z CAR were separately cloned into retroviral vectors, and the resulting virus was used to transduce T cells as described (Mezzadra et al., Nature 549, 106-110 (2017); Jorritsma et al., Blood 110 (10): 3564-3572. (2007)).
The open reading frames of transcripts of P2RY2 (ENST00000393597.7) or CD276 (ENST00000318443.10), were ordered as a codon optimized gBlock Gene Fragment (Integrated DNA Technologies or Twist Bioscience) and cloned into a lentiviral vector containing a blasticidin selection cassette. Constructs were verified by Sanger sequencing.
(§1) MART1-specific CD8+ T cells and MART1 epitope-expressing cancer cells were mixed at a ratio of 1:16 to 1:1. CD33 CAR-T cells and CD33 expressing THP-1 cells were mixed at a ratio of 1:16 to 1:4. CEA CAR-T cells and CEA expressing SW480 cells were mixed at a ratio of 1:1. Next, cells were centrifugated at 1,600 g for 3 min and incubated at 37° C. and 5% CO2 for 12-72 hours. T cell activation was assessed by surface staining with anti-CD137-BV421 (4-1BB, Biolegend), anti-CD137-PE/Cy7 (4-1BB, Biolegend), anti-CD69-APC/Fire™ 750 (FN50, Biolegend), anti-CD25-AF700 (BC96, Biolegend), anti-CD25-APC (BC96, Biolegend) antibodies and intracellular staining with anti-IL-2-PE/Cy7 (MQ1-17H12, Biolegend), anti-IFN-7-BV421 (4S.B3, Biolegend), anti-TNF-α-BV785 (MAb11, Biolegend), anti-TNF-α-APC (MAb11, Biolegend) antibodies, followed by flow cytometry analysis. For intracellular staining, brefeldin A (Biolegend) was added to the cell culture medium 4 h before cells were harvested. The viability of cancer cells that grow in suspension including THP-1 cells was assessed by flow cytometry-based absolute cell counting using AccuCount beads (Spherotech). For adherent cancer cells including BxPC3, MIA PaCa-2, MDA-MB-231 and MCF7, the cell viability was quantified using CellTiter-Blue Cell Viability Assay (Promega).

Another series has as its system THP-1 cells. Nature of the series: Viability of THP-1 cells in co-culture with CD33-specific CAR-T cells (flow cytometry-based cell counting). Details: species or system human. The note with it: 100 uM Diquafosol, 24 hours, co-culture with CD33-specific CAR-T cells (FIG. 9). As to the method: FIG. 8. Effects of P2RY2 antagonist on T cells and cancer cells in T cell-cancer cell co-cultures. T cells transduced with CD33-specific CAR (CAR-T) were co-cultured with genetically edited THP-1 cells in the absence or presence of 5 μM AR-C 118925XX (AR-C) for 6-24 hours. Control cells: THP-1 cells transduced with non-targeting sgRNA and Cas9 (gNT); P2RY2 deficient cells: THP-1 cells transduced with P2RY2-targeting sgRNA and Cas9 (gP2RY2-3, gP2RY2-4); B7-H3 (CD276) deficient cells: THP-1 cells transduced with B7-H3-targeting sgRNA and Cas9 (gCD276-1); P2RY2 and B7-H3 double deficient cells: THP-1 cells transduced with P2RY2-targeting sgRNA, B7-H3-targeting sgRNA, and Cas9 (gCD276-1 gP2RY2-3 DKO, gCD276-1 gP2RY2-4 DKO); P2RY2 overexpression cells: THP-1 cells transduced with the open reading frame of P2RY2 (P2RY2-OE); B7-H3 overexpression cells: THP-1 cells transduced with the open reading frame of CD276 (CD276-OE). […]
FIG. 9. […] Control cells THP-1 cells transduced with non-targeting sgRNA and Cas9 (Ctrl.); P2RY2 overexpression cells: THP-1 cells transduced with the open reading frame of P2RY2 (P2RY2-OE). […]
The open reading frames of transcripts of P2RY2(ENST00000393597.7) or CD276(ENST00000318443.10), were ordered as a codon optimized gBlock Gene Fragment (Integrated DNA Technologies or Twist Bioscience) and cloned into a lentiviral vector containing a blasticidin selection cassette. […]
MART1-specific CD8+ T cells and MART1 epitope-expressing cancer cells were mixed at a ratio of 1:16 to 1:4. […] T cell activation was assessed by surface staining with anti-CD137-BV421 (4-1BB, Biolegend), anti-CD69-APC/Fire™ 750 (FN50, Biolegend), anti-CD25-AF700 (BC96, Biolegend) antibodies and intracellular staining with anti-IL-2-PE/Cy7 (MQ1-17H12, Biolegend), anti-IFN-7-BV421 (4S.B3, Biolegend), anti-TNF-α-BV785 (MAb11, Biolegend) antibodies, followed by flow cytometry analysis. […] The viability of cancer cells that grow in suspension including THP-1 cells was assessed by flow cytometry-based absolute cell counting using AccuCount beads (Spherotech). […]

A further series relates to BxPC3 cells. The series is described as follows: Viability of BxPC3 cells in co-culture with MART-1-specific TCR-T cells (CellTiter-Blue). The note with it: single agent: 5 μM AR-C, 10 μg/ml atezolizumab or 10 μg/ml durvalumab, 6-24 hours (FIG. 11). It is filed as cell-based, human.
Description: FIG. 11. […] Untreated cells served as the control.
MART-1 specific T cells were generated as described (Mezzadra et al., Nature 549, 106-110 (2017); Jorritsma et al., Blood 110 (10): 3564-3572. (2007)). To generate CD33-specific chimeric antigen receptor (CAR) T cells, a CD33Hul95-CD28Z CAR (described in WO 2019/178382) cassette was cloned into a retroviral vector, and the resulting virus was used to transduce T cells as described (Mezzadra et al., Nature 549, 106-110 (2017); Jorritsma et al., Blood 110 (10): 3564-3572. (2007)).
as §1, with “to” for “to 1:1. CD33 CAR-T cells and CD33 expressing THP-1 cells were mixed at a ratio of 1:16 to”, “1:4.” for “1:4. CEA CAR-T cells and CEA expressing SW480 cells were mixed at a ratio of 1:1.”, “Biolegend),” for “Biolegend), anti-CD137-PE/Cy7 (4-1BB, Biolegend),”, “anti-CD25-AF700” for “anti-CD25-AF700 (BC96, Biolegend), anti-CD25-APC”, “anti-TNF-α-BV785” for “anti-TNF-α-BV785 (MAb11, Biolegend), anti-TNF-α-APC”, “BxPC3” for “BxPC3, MIA PaCa-2, MDA-MB-231”

Consider `Nc1ncnc2c1ncn2[C@@H]1O[C@H](COP(=O)(O)OP(=O)(O)OP(=O)(O)O)[C@@H](O)[C@H]1O` [ATP], for which, in the series on B7-H3 (P2RY2-deficient THP-1, U937, KBM7, K562 cells, presence of ATP (FIG. 2)), the “ATP-induced B7-H3 surface expression upon P2RY2 disruption” value was “abrogated”. The B7-H3 expression result in the series on B7-H3 was “increased B7-H3 expression in a dose-dependent manner”. Further, the T cell activation result in series [1] is “repressed”.
For `Nc1ncnc2c1ncn2[C@@H]1O[C@H](COP(=O)(O)OP(=O)(O)OP(O)(O)=S)[C@@H](O)[C@H]1O` [Adenosine-5′-(γ-thio)-triphosphate], the T cell activation entry in series [1] is “repressed”.
The same measure, in the same setting: for `Nc1ccn([C@H]2C[C@H](O)[C@@H](COP(=O)(O)OP(=O)(O)OP(=O)(O)OP(=O)(O)OC[C@H]3O[C@@H](n4ccc(=O)[nH]c4=O)[C@H](O)[C@@H]3O)O2)c(=O)n1` [Denufosol] the value was “repressed”.
Turning to `O=c1ccn([C@@H]2O[C@H](COP(=O)(O)OP(=O)(O)OP(=O)(O)OP(=O)(O)OC[C@H]3O[C@@H](n4ccc(=O)[nH]c4=O)[C@H](O)[C@@H]3O)[C@@H](O)[C@H]2O)c(=O)[nH]1` [Diquafosol], the “T cell-mediated cytotoxicity in THP-1 cells” value in the series with THP-1 cells is on record as “confers resistance”. In series [1], the T cell activation entry is on record as “repressed”.
Turning to `O=c1ccn([C@@H]2O[C@H](COP(=O)(O)OP(=O)(O)OP(=O)(O)O)[C@@H](O)[C@H]2O)c(=O)[nH]1` [UTP], in the series on B7-H3, the B7-H3 expression result is listed as “increased B7-H3 expression in a dose-dependent manner”.
“atezolizumab: Blocking antibody of the PD-L1-PD-1 immune checkpoint”: in the series with BxPC3 cells, the “viability of BxPC3 cells” value is reported as “reduced”.
